Data published in patent US10272090B1, “Liquid pharmaceutical composition comprising pemetrexed” (SYNTHON B.V., priority 2014, dated 2019).

Assay: Solubility / precipitation of pemetrexed diacid in aqueous solution depending on pH
Format: physicochemical
Settings: aqueous solutions with neutral or acidic pH

solubility: very low
SMILES: Nc1nc2[nH]cc(CCc3ccc(C(=O)N[C@@H](CCC(=O)O)C(=O)O)cc3)c2c(=O)[nH]1 [pemetrexed diacid, N-[4-[2-(2-amino-4,7-dihydro-4-oxo-1H-pyrrolo[2,3-d]pyrimidin-5-yl)ethyl]benzoyl]-L-glutamic acid]
